Laboratory results from PubChem BioAssay AID1918998 (Molecular Pharmacology Branch, DTP, NCI, 2023).

System: 521955-158-R2-J5-PDC complex spheroid growth
Assay: Anticancer human tumor 521955-158-R2-J5-PDC patient-derived pancreatic carcinoma cell line growth inhibition [AhR]
Details: for IC50: curve of first compound; for viability, T/C: stronger effect = lower value
Summary of the method: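 Spheroids combined tumor cells with HUVEC endothelial cells and human MSCs as stroma. AhR antagonists were paired with standard or investigational drugs, each dosed in half-log steps down from near clinical Cmax, or from 10 microM where Cmax was unknown.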

[1] = second compound 0.1 µM, first compound 0.0316 µM
[2] = second compound 0.1 µM, first compound 0.1 µM
[3] = second compound 0.1 µM, first compound 0.316 µM
[4] = second compound 0.1 µM, first compound 1 µM
[5] = second compound 0.1 µM, first compound 3.16 µM
[6] = second compound 0.1 µM, first compound 10 µM
[7] = second compound 0.316 µM, first compound 0.0316 µM
[8] = second compound 0.316 µM, first compound 0.1 µM
[9] = second compound 0.316 µM, first compound 0.316 µM
[10] = second compound 0.316 µM, first compound 1 µM
[11] = second compound 0.316 µM, first compound 3.16 µM
[12] = second compound 0.316 µM, first compound 10 µM
[13] = second compound 1 µM, first compound 0.0316 µM
[14] = second compound 1 µM, first compound 0.1 µM
[15] = second compound 1 µM, first compound 0.316 µM
[16] = second compound 1 µM, first compound 1 µM
[17] = second compound 1 µM, first compound 3.16 µM
[18] = second compound 1 µM, first compound 10 µM
[19] = second compound 3.16 µM, first compound 0.0316 µM
[20] = second compound 3.16 µM, first compound 0.1 µM
[21] = second compound 3.16 µM, first compound 0.316 µM
[22] = second compound 3.16 µM, first compound 1 µM
[23] = second compound 3.16 µM, first compound 3.16 µM
[24] = second compound 3.16 µM, first compound 10 µM
[25] = second compound 10 µM, first compound 0.0316 µM
[26] = second compound 10 µM, first compound 0.1 µM
[27] = second compound 10 µM, first compound 0.316 µM
[28] = second compound 10 µM, first compound 1 µM
[29] = second compound 10 µM, first compound 3.16 µM
[30] = second compound 10 µM, first compound 10 µM
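For viability, T/C in this document: spheroids mix tumor cells with HUVEC endothelium and human MSC stroma; luminescence taken as viability surrogate after a week of drug exposure.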

COc1cc(Nc2ncc3c(n2)-c2ccc(Cl)cc2C(c2c(F)cccc2OC)=NC3)ccc1C(=O)O + CC(CO)NC(=O)c1cc(-c2ccc(Cl)cc2)nn(-c2cnn(C)c2)c1=O
IC50 (second compound 0.1 µM): > 10 µM
IC50 (second compound 0.316 µM): > 10 µM
IC50 (second compound 1 µM): > 10 µM
IC50 (second compound 3.16 µM): 2.66 µM
IC50 (second compound 10 µM): 1.18 µM
viability, T/C [1]: 99.5%
viability, T/C [2]: 78.4%
viability, T/C [3]: 68.2%
viability, T/C [4]: 61.9%
viability, T/C [5]: 65.3%
viability, T/C [6]: 50%
viability, T/C [7]: 91.3%
viability, T/C [8]: 74.6%
viability, T/C [9]: 71.9%
viability, T/C [10]: 76.5%
viability, T/C [11]: 55%
viability, T/C [12]: 50.6%
viability, T/C [13]: 59.5%
viability, T/C [14]: 64.9%
viability, T/C [15]: 69.2%
viability, T/C [16]: 63.6%
viability, T/C [17]: 48.6%
viability, T/C [18]: 72.8%
viability, T/C [19]: 84.3%
viability, T/C [20]: 69.5%
viability, T/C [21]: 48%
viability, T/C [22]: 65.4%
viability, T/C [23]: 47.7%
viability, T/C [24]: 44.9%
viability, T/C [25]: 62.2%
viability, T/C [26]: 49.3%
viability, T/C [27]: 62.4%
viability, T/C [28]: 51.8%
viability, T/C [29]: 37.6%
viability, T/C [30]: 35%

CC1(C)CCC(CN2CCN(c3ccc(C(=O)NS(=O)(=O)c4ccc(NCC5CCOCC5)c([N+](=O)[O-])c4)c(Oc4cnc5[nH]ccc5c4)c3)CC2)=C(c2ccc(Cl)cc2)C1 + CC(CO)NC(=O)c1cc(-c2ccc(Cl)cc2)nn(-c2cnn(C)c2)c1=O
IC50 (second compound 0.1 µM): > 10 µM
IC50 (second compound 0.316 µM): > 10 µM
IC50 (second compound 1 µM): > 10 µM
IC50 (second compound 3.16 µM): > 10 µM
IC50 (second compound 10 µM): > 10 µM
viability, T/C [1]: 103%
viability, T/C [2]: 125%
viability, T/C [3]: 92.1%
viability, T/C [4]: 92.7%
viability, T/C [5]: 98%
viability, T/C [6]: 67.3%
viability, T/C [7]: 115%
viability, T/C [8]: 111%
viability, T/C [9]: 124%
viability, T/C [10]: 100%
viability, T/C [11]: 111%
viability, T/C [12]: 67.7%
viability, T/C [13]: 93.1%
viability, T/C [14]: 105%
viability, T/C [15]: 122%
viability, T/C [16]: 138%
viability, T/C [17]: 124%
viability, T/C [18]: 56%
viability, T/C [19]: 123%
viability, T/C [20]: 99.1%
viability, T/C [21]: 113%
viability, T/C [22]: 113%
viability, T/C [23]: 108%
viability, T/C [24]: 61.9%
viability, T/C [25]: 90.2%
viability, T/C [26]: 120%
viability, T/C [27]: 109%
viability, T/C [28]: 92.8%
viability, T/C [29]: 95.1%
viability, T/C [30]: 63.7%

COc1ccc([C@@H](O)c2cc(-c3ncnc4cc(N5CCOCC5)ccc34)c(F)cc2Cl)nn1 + Cc1ccccc1N=Nc1ccc(NC(=O)c2ccnn2C)c(C)c1
IC50 (second compound 0.1 µM): > 10 µM
IC50 (second compound 0.316 µM): > 10 µM
IC50 (second compound 1 µM): > 10 µM
IC50 (second compound 3.16 µM): > 10 µM
IC50 (second compound 10 µM): > 10 µM
viability, T/C [1]: 116%
viability, T/C [2]: 98.5%
viability, T/C [3]: 75.9%
viability, T/C [4]: 78.1%
viability, T/C [5]: 67.1%
viability, T/C [6]: 48.3%
viability, T/C [7]: 98.8%
viability, T/C [8]: 96.3%
viability, T/C [9]: 93.5%
viability, T/C [10]: 89.9%
viability, T/C [11]: 72.8%
viability, T/C [12]: 56.6%
viability, T/C [13]: 109%
viability, T/C [14]: 133%
viability, T/C [15]: 108%
viability, T/C [16]: 97.2%
viability, T/C [17]: 84.4%
viability, T/C [18]: 59%
viability, T/C [19]: 139%
viability, T/C [20]: 117%
viability, T/C [21]: 128%
viability, T/C [22]: 101%
viability, T/C [23]: 91.3%
viability, T/C [24]: 54.3%
viability, T/C [25]: 142%
viability, T/C [26]: 136%
viability, T/C [27]: 142%
viability, T/C [28]: 105%
viability, T/C [29]: 88.9%
viability, T/C [30]: 49.9%

CC(C)CC(NC(=O)C(Cc1ccccc1)NC(=O)c1cnccn1)B(O)O (stereo not given) + Cc1ccccc1N=Nc1ccc(NC(=O)c2ccnn2C)c(C)c1
IC50 (second compound 0.1 µM): 0.0161 µM
IC50 (second compound 0.316 µM): 0.0163 µM
IC50 (second compound 1 µM): 0.0173 µM
IC50 (second compound 3.16 µM): 0.0151 µM
IC50 (second compound 10 µM): 0.00876 µM
viability, T/C (second compound 0.1 µM, first compound 0.000949 µM): 91.3%
viability, T/C (second compound 0.1 µM, first compound 0.003 µM): 77.6%
viability, T/C (second compound 0.1 µM, first compound 0.00949 µM): 105%
viability, T/C (second compound 0.1 µM, first compound 0.03 µM): 0.49%
viability, T/C (second compound 0.1 µM, first compound 0.0949 µM): 0.24%
viability, T/C (second compound 0.1 µM, first compound 0.3 µM): 1.83%
viability, T/C (second compound 0.316 µM, first compound 0.000949 µM): 95.3%
viability, T/C (second compound 0.316 µM, first compound 0.003 µM): 89.4%
viability, T/C (second compound 0.316 µM, first compound 0.00949 µM): 97.4%
viability, T/C (second compound 0.316 µM, first compound 0.03 µM): 0.67%
viability, T/C (second compound 0.316 µM, first compound 0.0949 µM): 0.36%
viability, T/C (second compound 0.316 µM, first compound 0.3 µM): 0.41%
viability, T/C (second compound 1 µM, first compound 0.000949 µM): 127%
viability, T/C (second compound 1 µM, first compound 0.003 µM): 99.8%
viability, T/C (second compound 1 µM, first compound 0.00949 µM): 101%
viability, T/C (second compound 1 µM, first compound 0.03 µM): 2.56%
viability, T/C (second compound 1 µM, first compound 0.0949 µM): 2.56%
viability, T/C (second compound 1 µM, first compound 0.3 µM): 0.41%
viability, T/C (second compound 3.16 µM, first compound 0.000949 µM): 146%
viability, T/C (second compound 3.16 µM, first compound 0.003 µM): 119%
viability, T/C (second compound 3.16 µM, first compound 0.00949 µM): 82.3%
viability, T/C (second compound 3.16 µM, first compound 0.03 µM): 1.3%
viability, T/C (second compound 3.16 µM, first compound 0.0949 µM): 0.26%
viability, T/C (second compound 3.16 µM, first compound 0.3 µM): 0.34%
viability, T/C (second compound 10 µM, first compound 0.000949 µM): 142%
viability, T/C (second compound 10 µM, first compound 0.003 µM): 153%
viability, T/C (second compound 10 µM, first compound 0.00949 µM): 42.7%
viability, T/C (second compound 10 µM, first compound 0.03 µM): 1.3%
viability, T/C (second compound 10 µM, first compound 0.0949 µM): 3.29%
viability, T/C (second compound 10 µM, first compound 0.3 µM): 0.52%
